The values that follow come from ChEMBL document CHEMBL3217748, “Chemical synthesis and biological study of 4-carboxymethyl-epiafzelechin acid, an osteoprotective compound from the rhizomes of Drynaria fortunei” (2012).

Assay [1] deals with Estrogen receptor beta (Homo sapiens) (UniProt Q92731). Kind of assay: Transactivation of human ER-beta transfected in rat UMR106 cells at 10^-14 to 10^-6 M after 24 hrs by dual luciferase reporter gene assay. The class given is cell-based. A general note: In a reporter assay the amount or activity of a reporter protein is the signal.
The test system of assay [2] is UMR106. Kind of assay: Induction of rat UMR106 cell proliferation after 24 hrs by MTS assay in presence of estrogen receptor antagonist ICI 182,780. The class given is functional, cell-based.
The subject of assay [3] is UMR106. Kind of assay: Induction of rat UMR106 cell differentiation after 24 hrs by ALP assay in presence of estrogen receptor antagonist ICI 182,780. The class given is functional, cell-based.
The subject of assay [4] is UMR106. Kind of assay: Induction of rat UMR106 cell proliferation after 24 hrs by MTS assay. The class given is functional, cell-based. In general terms: Tetrazolium assays rely on reduction of a dye to a coloured formazan, in cell work by metabolically active cells.
The nature of assay [5]: Induction of rat UMR106 cell differentiation at 10^-10 M after 24 hrs by ALP assay relative to control. The class given is functional.
The nature of assay [6]: (§1) Induction of rat UMR106 cell differentiation at 10^-8 M after 24 hrs by ALP assay relative to control. The class given is functional.
Assay [7] in a line: Induction of rat UMR106 cell differentiation at 10^-6 M after 24 hrs by ALP assay relative to control. The class given is functional.
A short description of assay [8]: Induction of rat UMR106 cell proliferation assessed as increase in cell number at 10^-10 to 10^-8 M after 24 hrs by MTS assay relative to control. The class given is functional.
Assay [9] deals with UMR106. Kind of assay: Induction of rat UMR106 cell proliferation at 10^-8 M after 24 hrs by MTS assay in presence of estrogen receptor antagonist ICI 182,780. The class given is functional, cell-based.
The subject of assay [10] is UMR106. Described as §1. The class given is functional.
The subject of assay [11] is UMR106. Kind of assay: Induction of rat UMR106 cell proliferation assessed as increase in cell number at 10^-8 M after 24 hrs by MTS assay. The class given is functional, cell-based.

The source made the active and inactive calls. The calls are words filed in the database; no cut-off is given here.

Chain of Estrogen receptor beta (Homo sapiens) (Q92731 whole entry): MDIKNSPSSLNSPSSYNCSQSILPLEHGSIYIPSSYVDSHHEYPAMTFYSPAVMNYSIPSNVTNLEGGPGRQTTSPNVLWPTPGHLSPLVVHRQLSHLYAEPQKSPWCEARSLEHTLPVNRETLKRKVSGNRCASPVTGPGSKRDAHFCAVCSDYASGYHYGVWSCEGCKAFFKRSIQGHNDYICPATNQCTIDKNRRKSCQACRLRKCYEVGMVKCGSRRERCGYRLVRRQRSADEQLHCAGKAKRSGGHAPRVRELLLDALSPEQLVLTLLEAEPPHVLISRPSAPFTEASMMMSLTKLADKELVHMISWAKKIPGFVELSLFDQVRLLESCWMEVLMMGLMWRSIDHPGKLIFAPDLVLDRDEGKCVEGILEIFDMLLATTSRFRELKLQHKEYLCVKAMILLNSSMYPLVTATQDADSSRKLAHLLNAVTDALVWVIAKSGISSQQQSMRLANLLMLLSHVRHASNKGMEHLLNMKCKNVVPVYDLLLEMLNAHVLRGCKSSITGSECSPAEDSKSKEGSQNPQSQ

As for `O=C1C[C@H]2c3c(O)cc(O)cc3O[C@H](c3ccc(O)cc3)[C@H]2O1`, the outcome (in assay [1]; with UMR106 [2]) was inactive. Further, the outcome with UMR106 [3] was Active. The Activity entry with UMR106 [4] was “Dose-dependent effect”; in [5], 10%.

Regarding `O=C(O)C[C@H]1c2c(O)cc(O)cc2O[C@H](c2ccc(O)cc2)[C@@H]1O`, the outcome (in assay [1]; in the assay on UMR106 [2]) was inactive. The Activity in [6] was 14%; in assay [7], 18%; in the assay on UMR106 [4], “Dose-dependent effect”; in [5], 18%. Besides, the “fold change (FC)” value in assay [8] amounted to 1.4. The result with UMR106 [3] was Active.

Take `C[C@]12CC[C@@H]3c4ccc(O)cc4CC[C@H]3[C@@H]1CC[C@@H]2O`: the outcome with UMR106 [9] was inactive. Moreover, the outcome with UMR106 [10], in the assay with UMR106 [3] and in the assay on UMR106 [11] was Active. In the assay with UMR106 [4], the Activity result is “Dose-dependent effect”.
